Assay results reported in the NIST ThermoML archive (doi:10.1016/j.jct.2004.07.031).
“And” between values parts separate entries of the source, which are not always exact repeats. Identical values can stand only once.

Assay: molar heat capacity at constant pressure
Settings: 101.33 kPa, Crystal, PPMS instrument (Quantum Design)

O=P([O-])([O-])[O-].[La+3] [lanthanum orthophosphate]
Settings	molar heat capacity at constant pressure
9.994 K	0.1666 J/K/mol
10 K	0.1669 J/K/mol
10.01 K	0.1671 J/K/mol
10.19 K	0.1769 J/K/mol
10.2 K	0.1776 J/K/mol and 0.1771 J/K/mol
10.21 K	0.1778 J/K/mol
11.18 K	0.2376 J/K/mol
12.19 K	0.3139 J/K/mol
13.19 K	0.4068 J/K/mol
14.19 K	0.5187 J/K/mol
15.2 K	0.6528 J/K/mol
16.21 K	0.8094 J/K/mol
17.22 K	0.9882 J/K/mol
18.24 K	1.192 J/K/mol
19.25 K	1.422 J/K/mol
20.24 K	1.669 J/K/mol
21.28 K	1.955 J/K/mol
22.27 K	2.25 J/K/mol
23.28 K	2.587 J/K/mol
24.29 K	2.937 J/K/mol
25.31 K	3.319 J/K/mol
26.33 K	3.721 J/K/mol
27.36 K	4.152 J/K/mol
28.34 K	4.576 J/K/mol
29.38 K	5.046 J/K/mol
30.37 K	5.505 J/K/mol
31.4 K	6.006 J/K/mol
32.4 K	6.51 J/K/mol
33.41 K	7.04 J/K/mol
34.43 K	7.567 J/K/mol
35.43 K	8.121 J/K/mol
36.45 K	8.686 J/K/mol
37.45 K	9.258 J/K/mol
38.41 K	9.809 J/K/mol
38.46 K	9.827 J/K/mol
39.48 K	10.43 J/K/mol
40.48 K	11.02 J/K/mol
40.49 K	11.03 J/K/mol
42.49 K	12.25 J/K/mol
44.51 K	13.49 J/K/mol
46.53 K	14.76 J/K/mol
48.55 K	16.05 J/K/mol
50.57 K	17.36 J/K/mol
52.59 K	18.66 J/K/mol
54.6 K	19.95 J/K/mol
56.62 K	21.25 J/K/mol
58.64 K	22.56 J/K/mol
60.66 K	23.86 J/K/mol
62.68 K	25.14 J/K/mol
64.7 K	26.41 J/K/mol
66.72 K	27.64 J/K/mol
68.74 K	28.87 J/K/mol
70.74 K	30.08 J/K/mol
72.76 K	31.29 J/K/mol
74.78 K	32.47 J/K/mol
75.85 K	33.08 J/K/mol
76.8 K	33.62 J/K/mol
78.81 K	34.78 J/K/mol
80.81 K	35.87 J/K/mol
80.84 K	35.88 J/K/mol
85.86 K	38.64 J/K/mol
90.91 K	41.31 J/K/mol
95.96 K	43.8 J/K/mol
101 K	46.3 J/K/mol
106 K	48.66 J/K/mol
111.1 K	50.92 J/K/mol
116.1 K	53.11 J/K/mol
121.2 K	55.16 J/K/mol
126.2 K	57.26 J/K/mol
131.3 K	59.2 J/K/mol
136.3 K	61.11 J/K/mol
141.4 K	62.97 J/K/mol
146.4 K	64.73 J/K/mol
151.4 K	66.44 J/K/mol
156.5 K	68.1 J/K/mol
161.5 K	69.61 J/K/mol
166.5 K	71.14 J/K/mol
171.6 K	72.74 J/K/mol
176.6 K	74.33 J/K/mol
181.6 K	75.68 J/K/mol
186.7 K	77.05 J/K/mol
191.7 K	78.48 J/K/mol
196.7 K	79.89 J/K/mol
201.8 K	81.31 J/K/mol
206.8 K	82.59 J/K/mol
211.8 K	83.86 J/K/mol
216.9 K	85.21 J/K/mol
221.9 K	86.36 J/K/mol
226.9 K	87.35 J/K/mol
231.9 K	88.39 J/K/mol
237 K	89.46 J/K/mol
242 K	90.5 J/K/mol
247 K	91.49 J/K/mol
252.1 K	92.36 J/K/mol
257.1 K	93.28 J/K/mol
262.1 K	94.21 J/K/mol
267.1 K	95.29 J/K/mol
272.1 K	96.19 J/K/mol
277.1 K	97.31 J/K/mol
282.2 K	98.39 J/K/mol and 98.37 J/K/mol
287.2 K	99.41 J/K/mol
287.3 K	99.33 J/K/mol
292.2 K	100.36 J/K/mol
292.3 K	100.2 J/K/mol
297.3 K	100.95 J/K/mol
302.26 K	101.79 J/K/mol
302.33 K	101.79 J/K/mol
302.35 K	101.81 J/K/mol
307.29 K	102.41 J/K/mol
307.35 K	102.45 J/K/mol
307.37 K	102.44 J/K/mol
312.31 K	103.05 J/K/mol
312.37 K	102.95 J/K/mol
312.39 K	103 J/K/mol
317.33 K	103.53 J/K/mol
317.4 K	103.64 J/K/mol
317.42 K	103.68 J/K/mol
322.35 K	104.24 J/K/mol
322.44 K	104.25 J/K/mol
322.45 K	104.34 J/K/mol
327.36 K	105.12 J/K/mol
327.45 K	105.03 J/K/mol
327.48 K	104.97 J/K/mol
332.38 K	105.69 J/K/mol
332.46 K	105.73 J/K/mol
332.48 K	105.57 J/K/mol
337.4 K	106 J/K/mol
337.5 K	106.2 J/K/mol and 106.19 J/K/mol
342.43 K	106.41 J/K/mol
342.53 K	106.46 J/K/mol
342.55 K	106.5 J/K/mol
347.11 K	107.02 J/K/mol
347.2 K	106.86 J/K/mol
347.23 K	106.97 J/K/mol
351.79 K	107.32 J/K/mol
351.86 K	107.38 J/K/mol and 107.33 J/K/mol
356.73 K	107.65 J/K/mol
356.79 K	107.89 J/K/mol
356.81 K	107.7 J/K/mol
361.73 K	108.18 J/K/mol
361.79 K	108.22 J/K/mol
361.8 K	108.28 J/K/mol
366.74 K	108.45 J/K/mol
366.81 K	108.25 J/K/mol and 108.64 J/K/mol
371.74 K	108.81 J/K/mol
371.8 K	108.77 J/K/mol
371.82 K	108.81 J/K/mol
376.74 K	109.11 J/K/mol
376.8 K	109 J/K/mol
376.82 K	108.98 J/K/mol
381.74 K	109.41 J/K/mol
381.81 K	109.29 J/K/mol
